{
  "source": "patent US7183312B2",
  "about": "“Taxanes having a C7 heterosubstituted acetate substituent” (FSU Research Foundation, Inc., priority 2000, dated 2007)",
  "data": [
    {"system": "HCT116", "assay": "In vitro cytotoxicity measured by the cell colony formation assay", "assay_type": "cell-based", "conditions": "HCT116 cells; incubated with drugs for 72 h at 37° C.; colonies counted after 7 days; ID50 = drug concentration producing 50% inhibition of colony formation; read-out: IN VITRO ID 50 (nm) HCT116", "method": "In Vitro Cytotoxicity Measured by the Cell Colony Formation Assay\nFour hundred cells (HCT116) were plated in 60 mm Petri dishes containing 2.7 mL of medium (modified McCoy's 5a medium containing 10% fetal bovine serum and 100 units/mL penicillin and 100 µg/mL streptomycin). The cells were incubated in a CO2 incubator at 37° C. for 5 h for attachment to the bottom of Petri dishes. The compounds identified in Example 2 were made up fresh in medium at ten times the final concentration, and then 0.3 mL of this stock solution was added to the 2.7 mL of medium in the dish. The cells were then incubated with drugs for 72 h at 37° C. At the end of incubation the drug-containing media were decanted, the dishes were rinsed with 4 mL of Hank's Balance Salt Solution (HBSS), 5 mL of fresh medium was added, and the dishes were returned to the incubator for colony formation. The cell colonies were counted using a colony counter after incubation for 7 days.", "units": {"IC50": "nM"}, "values": [
      {"smiles": "CC(=O)O[C@@]12CO[C@@H]1C[C@H](OC(=O)COc1ccccc1)[C@@]1(C)C(=O)[C@H](O)C3=C(C)[C@@H](OC(=O)[C@H](O)[C@@H](NC(=O)OC(C)(C)C)c4ccco4)C[C@@](O)([C@@H](OC(=O)c4ccccc4)C12)C3(C)C", "note": "(some centres unmarked) [Compound 5616]", "IC50": "< 1"},
      {"smiles": "COCC(=O)O[C@H]1C[C@H]2OC[C@@]2(OC(C)=O)C2[C@H](OC(=O)c3ccccc3)[C@]3(O)C[C@H](OC(=O)[C@H](O)[C@@H](NC(=O)OC(C)(C)C)c4ccco4)C(C)=C([C@@H](O)C(=O)[C@@]21C)C3(C)C", "note": "(some centres unmarked) [Compound 5445]", "IC50": "< 1"},
      {"smiles": "COCC(=O)O[C@H]1C[C@H]2OC[C@@]2(OC(C)=O)C2[C@H](OC(=O)c3ccccc3)[C@]3(O)C[C@H](OC(=O)[C@H](O)[C@@H](NC(=O)C=C(C)C)c4ccco4)C(C)=C([C@@H](O)C(=O)[C@@]21C)C3(C)C", "note": "(some centres unmarked) [Compound 5474]", "IC50": "< 1"},
      {"smiles": "CCC(C)(C)OC(=O)N[C@@H](c1ccco1)[C@@H](O)C(=O)O[C@H]1C[C@@]2(O)[C@@H](OC(=O)c3ccccc3)C3[C@](C)(C(=O)[C@H](O)C(=C1C)C2(C)C)[C@@H](OC(=O)COC(C)=O)C[C@H]1OC[C@@]31OC(C)=O", "note": "(some centres unmarked) [Compound 6353]", "IC50": "< 1"},
      {"smiles": "CCC(C)(C)OC(=O)NC(c1ccco1)C(O)C(=O)OC1CC2(O)C(OC(=O)c3ccccc3)C3C4(OC(C)=O)COC4CC(OC(=O)COC)C3(C)C(=O)C(O)C(=C1C)C2(C)C", "note": "(centres unmarked) [Compound 6226, N-Debenzoyl-N-tert-amyloxycarbonyl-3′-desphenyl-3′-(2-furyl)-10-deacetyl-7-methoxyacetyl taxol]", "IC50": "< 1"},
      {"smiles": "CC(=O)OCC(=O)O[C@H]1C[C@H]2OC[C@@]2(OC(C)=O)C2[C@H](OC(=O)c3ccccc3)[C@]3(O)C[C@H](OC(=O)[C@H](O)[C@@H](NC(=O)C=C(C)C)c4ccco4)C(C)=C([C@@H](O)C(=O)[C@@]21C)C3(C)C", "note": "(some centres unmarked) [Compound 5544]", "IC50": "< 1"},
      {"smiles": "C/C=C/C(=O)N[C@@H](c1ccco1)[C@@H](O)C(=O)O[C@H]1C[C@@]2(O)[C@@H](OC(=O)c3ccccc3)C3[C@](C)(C(=O)[C@H](O)C(=C1C)C2(C)C)[C@@H](OC(=O)COc1ccccc1)C[C@H]1OC[C@@]31OC(C)=O", "note": "(some centres unmarked) [Compound 5811]", "IC50": "< 1"},
      {"smiles": "CC(=O)OCC(=O)O[C@H]1C[C@H]2OC[C@@]2(OC(C)=O)C2[C@H](OC(=O)c3ccccc3)[C@]3(O)C[C@H](OC(=O)[C@H](O)[C@@H](NC(=O)OC(C)(C)C)c4ccco4)C(C)=C([C@@H](O)C(=O)[C@@]21C)C3(C)C", "note": "(some centres unmarked) [Compound 5622]", "IC50": "< 1"},
      {"smiles": "C/C=C/C(=O)N[C@@H](c1ccco1)[C@@H](O)C(=O)O[C@H]1C[C@@]2(O)[C@@H](OC(=O)c3ccccc3)C3[C@](C)(C(=O)[C@H](O)C(=C1C)C2(C)C)[C@@H](OC(=O)COC)C[C@H]1OC[C@@]31OC(C)=O", "note": "(some centres unmarked) [Compound 5835]", "IC50": "< 1"},
      {"smiles": "CSCC(=O)O[C@H]1C[C@H]2OC[C@@]2(OC(C)=O)C2[C@H](OC(=O)c3ccccc3)[C@]3(O)C[C@H](OC(=O)[C@H](O)[C@@H](NC(=O)OC(C)(C)C)c4ccco4)C(C)=C([C@@H](O)C(=O)[C@@]21C)C3(C)C", "note": "(some centres unmarked) [Compound 5600]", "IC50": "< 1"},
      {"smiles": "CC(=O)O[C@@]12CO[C@@H]1C[C@H](OC(=O)COc1ccccc1)[C@@]1(C)C(=O)[C@H](O)C3=C(C)[C@@H](OC(=O)[C@H](O)[C@@H](NC(=O)C=C(C)C)c4ccco4)C[C@@](O)([C@@H](OC(=O)c4ccccc4)C12)C3(C)C", "note": "(some centres unmarked) [Compound 5555]", "IC50": "< 1"}
    ]}
  ]
}
